One assay relates to M. mucogenium group. Kind of assay: MIC (CLSI broth dilution), RGM isolates. Type of assay: cell-based. (In general: In broth dilution the organism is exposed to a series of concentrations in liquid medium.)
The subject of another assay is M. chelonae. Kind of assay: MIC (CLSI broth dilution), RGM isolates. The format is cell-based.
In assay [1] the test system is rapid-growing mycobacteria (RGM) isolates. Put plainly: MIC (CLSI broth dilution), all RGM isolates. Type of assay: cell-based, nontuberculous mycobacteria. To be noted: all 50 RGM isolates.
A further assay has as its system M. abscessus complex. Kind of assay: MIC (CLSI broth dilution), RGM isolates. The format is cell-based.
For a further assay, the system named is M. fortuitum group. Put plainly: MIC (CLSI broth dilution), RGM isolates. The format is cell-based.
A further assay concerns M. smegmatis group. Kind of assay: MIC (CLSI broth dilution), RGM isolates. Type of assay: cell-based.
A further assay relates to M. immunogenum group. Put plainly: MIC (CLSI broth dilution), RGM isolates. The format is cell-based. To be noted: M. immunogenum.
For another assay, the system named is M. simiae. Kind of assay: MIC (CLSI broth dilution), slow-growing NTM isolates. To be noted: read-out: MIC. Type of assay: cell-based.
The test system of the next assay is M. arupense. Described as above. Type of assay: cell-based. To be noted: isolate 11, Other; read-out: MIC.

In brackets after ≈: the same amount, converted by molar mass. Read-outs that look alike come from different tables or passages of the source.

In the case of `C[C@@H](O)[C@H]1C(=O)N2C(C(=O)O)=C(SCCN=CN)C[C@H]12` [IPM, imipenem], the minimum inhibitory concentration (MIC) – broadly, the lowest concentration found to suppress growth – in the assay on M. mucogenium group (isolate 39, M. mucogenicum group, M. mucogenicum) was not above 2 µg/mL; in the assay with M. mucogenium group (isolate 40, M. mucogenicum group, M. mucogenicum) it was not above 2 µg/mL; in the assay with M. mucogenium group (isolate 41, M. mucogenicum group, M. mucogenicum), not above 2 µg/mL; in the assay with M. mucogenium group (isolate 42, M. mucogenicum group, M. mucogenicum), not above 2 µg/mL; with M. mucogenium group (isolate 43, M. mucogenicum group, M. phocaicum), not above 2 µg/mL; against M. mucogenium group (isolate 44, M. mucogenicum group, M. phocaicum), not above 2 µg/mL. Moreover, the minimum inhibitory concentration (MIC) with M. mucogenium group (isolate 45, M. mucogenicum group, M. phocaicum) is not above 2 µg/mL; against M. mucogenium group (isolate 46, M. mucogenicum group, M. phocaicum), not above 2 µg/mL; against M. mucogenium group (isolate 47, M. mucogenicum group, M. phocaicum), not above 2 µg/mL; in the assay on M. mucogenium group (isolate 48, M. mucogenicum group, M. phocaicum) it was not above 2 µg/mL; against M. chelonae (isolate 18, M. chelonae), 16 µg/mL (≈ 53.4 µM); in the assay on M. chelonae (isolate 19, M. chelonae) it was 16 µg/mL (≈ 53.4 µM). For the same molecule, the MIC with M. chelonae (isolate 20, M. chelonae) is 16 µg/mL (≈ 53.4 µM); against M. chelonae (isolate 21, M. chelonae), 32 µg/mL (≈ 107 µM); against M. chelonae (isolate 22, M. chelonae) it was 16 µg/mL (≈ 53.4 µM); against M. abscessus complex (isolate 1, M. abscessus complex, erm gene type MAB30) it was 8 µg/mL (≈ 26.7 µM); against M. abscessus complex (isolate 2, M. abscessus complex, erm gene type MAB30), 16 µg/mL (≈ 53.4 µM); against M. abscessus complex (isolate 3, M. abscessus complex, erm gene type MAB30), 8 µg/mL (≈ 26.7 µM). Also, the minimum inhibitory concentration (MIC) came to 8 µg/mL (≈ 26.7 µM) against M. abscessus complex (isolate 4, M. abscessus complex, erm gene type massiliense); 16 µg/mL (≈ 53.4 µM) in the assay with M. abscessus complex (isolate 5, M. abscessus complex, erm gene type massiliense/subsp. abs hybrid); 8 µg/mL (≈ 26.7 µM) in the assay with M. abscessus complex (isolate 6, M. abscessus complex, erm gene type Type 1 abscessus); 8 µg/mL (≈ 26.7 µM) against M. abscessus complex (isolate 7, M. abscessus complex, erm gene type Type 1 abscessus); 8 µg/mL (≈ 26.7 µM) against M. abscessus complex (isolate 8, M. abscessus complex, erm gene type Type 1 abscessus); 16 µg/mL (≈ 53.4 µM) in the assay with M. abscessus complex (isolate 9, M. abscessus complex, erm gene type Type 1 abscessus). Also, the minimum inhibitory concentration (MIC) was 16 µg/mL (≈ 53.4 µM) in the assay with M. abscessus complex (isolate 10, M. abscessus complex, erm gene type Type 1 abscessus); 8 µg/mL (≈ 26.7 µM) against M. abscessus complex (isolate 11, M. abscessus complex, erm gene type Type 6 abscessus); 16 µg/mL (≈ 53.4 µM) against M. abscessus complex (isolate 12, M. abscessus complex, erm gene type Type 6 abscessus); 8 µg/mL (≈ 26.7 µM) against M. abscessus complex (isolate 13, M. abscessus complex, erm gene type Type 6 abscessus); 8 µg/mL (≈ 26.7 µM) in the assay with M. abscessus complex (isolate 14, M. abscessus complex, erm gene type Type 6 abscessus); 8 µg/mL (≈ 26.7 µM) in the assay with M. abscessus complex (isolate 15, M. abscessus complex, erm gene type Type 7 abscessus). The MIC with M. abscessus complex (isolate 16, M. abscessus complex, erm gene type Type 7 abscessus) is 8 µg/mL (≈ 26.7 µM); with M. abscessus complex (isolate 17, M. abscessus complex, erm gene type Type 8 abscessus), 8 µg/mL (≈ 26.7 µM); with M. fortuitum group (isolate 23, M. fortuitum group, M. fortuitum) it was not above 2 µg/mL; against M. fortuitum group (isolate 24, M. fortuitum group, M. fortuitum) it was 4 µg/mL (≈ 13.4 µM); with M. fortuitum group (isolate 25, M. fortuitum group, M. fortuitum), not above 2 µg/mL; against M. fortuitum group (isolate 26, M. fortuitum group, M. porcinum) it was not above 2 µg/mL. The minimal inhibitory concentration (MIC) is 4 µg/mL (≈ 13.4 µM) against M. fortuitum group (isolate 27, M. fortuitum group, M. porcinum); 8 µg/mL (≈ 26.7 µM) with M. fortuitum group (isolate 28, M. fortuitum group, M. porcinum/M. boenickei); 4 µg/mL (≈ 13.4 µM) against M. fortuitum group (isolate 29, M. fortuitum group, M. porcinum/M. boenickei); not above 2 µg/mL in the assay with M. fortuitum group (isolate 30, M. fortuitum group, M. porcinum/M. boenickei); not above 2 µg/mL with M. fortuitum group (isolate 31, M. fortuitum group, M. senegalense); not above 2 µg/mL against M. fortuitum group (isolate 32, M. fortuitum group, M. senegalense). In addition, the MIC was not above 2 µg/mL in the assay on M. fortuitum group (isolate 33, M. fortuitum group, M. senegalense); not above 2 µg/mL in the assay on M. fortuitum group (isolate 34, M. fortuitum group, M. senegalense); 4 µg/mL (≈ 13.4 µM) with M. smegmatis group (isolate 49, M. smegmatis group, M. goodii); 4 µg/mL (≈ 13.4 µM) with M. smegmatis group (isolate 50, M. smegmatis group, M. wolinskyi); 16 µg/mL (≈ 53.4 µM) with M. immunogenum group (isolate 35, M. immunogenum group); 32 µg/mL (≈ 107 µM) with M. immunogenum group (isolate 36, M. immunogenum group). Besides, the minimal inhibitory concentration (MIC) against M. immunogenum group (isolate 37, M. immunogenum group) worked out at 16 µg/mL (≈ 53.4 µM); against M. immunogenum group (isolate 38, M. immunogenum group) it was 32 µg/mL (≈ 107 µM). The MIC50 – broadly, the lowest concentration that inhibits either 50% of growth or 50% of the strains tested, depending on the study – in assay [1] stood at 8 µg/mL (≈ 26.7 µM). Besides, the MIC90 (usually the lowest concentration that inhibits either 90% of growth or 90% of the strains tested, depending on the study) in [1] worked out at 16 µg/mL (≈ 53.4 µM).
On to `CO[C@H]1/C=C/O[C@@]2(C)Oc3c(C)c(O)c4c(c3C2=O)C2=NC3(CCN(CC(C)C)CC3)NC2=C(NC(=O)/C(C)=C\C=C\[C@H](C)[C@H](O)[C@@H](C)[C@@H](O)[C@@H](C)[C@H](OC(C)=O)[C@@H]1C)C4=O` [RFB, rifabutin], for which the minimum inhibitory concentration (MIC) is not above 0.25 µg/mL in the assay with M. simiae (isolate 13, Other); more than 2 µg/mL in the assay on M. simiae (isolate 14, Other); more than 2 µg/mL in the assay with M. simiae (isolate 15, Other); not above 0.25 µg/mL in the assay on M. arupense.
Regarding `CO[C@H]1/C=C/O[C@@]2(C)Oc3c(C)c(O)c4c(O)c(c(/C=N/N5CCN(C)CC5)c(O)c4c3C2=O)NC(=O)/C(C)=C\C=C\[C@H](C)[C@H](O)[C@@H](C)[C@@H](O)[C@@H](C)[C@H](OC(C)=O)[C@@H]1C` [RIF, rifampin], the minimum inhibitory concentration (MIC) with M. simiae (isolate 13, Other) is more than 2 µg/mL; in the assay with M. simiae (isolate 14, Other) it was more than 2 µg/mL; in the assay with M. simiae (isolate 15, Other) it was more than 2 µg/mL; with M. arupense, more than 2 µg/mL.

These data come from US20250332178A1, “METHODS OF TREATING MYCOBACTERIAL INFECTIONS USING TETRACYCLINE COMPOUNDS” (priority 2018, published 2025).
